This is an account of results in patent US20160257697A1, “THIOPHENE-SUBSTITUTED TETRACYCLIC COMPOUNDS AND METHODS OFUSE THEREOF FOR THE TREATMENT OF VIRAL DISEASES” (priority 2013, published 2016).

Like-named read-outs stand apart in the source and are kept apart here.

What is called IC50 is the point on the concentration scale where inhibition reaches its midpoint.

Holding throughout (experiment): microbe, parasite or virus in culture
Holding throughout (type): cell-based, Hepatitis C virus (HCV)

Assay [1] relates to HCV replicon 1AY93H. The following applies: Replicon Assay A. The essentials: (§1)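 Replicon cells were seeded at 2000 cells/well with test compound in 0.5% DMSO and 5% FBS, then harvested on day 3. Replicon RNA was measured by multiplex TaqMan real-time RT-PCR, using cyclophilin RNA as the endogenous control and quantified against standard curves of HCV replicon total RNA.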
For orientation: In antiviral work, replicon cells carry a viral genome segment that copies itself.

The test system of assay [2] is HCV replicon 1A. The following applies: Replicon Assay A. In outline:
as §1

In assay [3] the test system is HCV replicon 2B. The following applies: Replicon Assay A. In outline:
as §1

Assay [4] relates to HCV replicon 1AQ30D. The following applies: Replicon Assay B.
Assay [5] deals with HCV replicon 1B. The following applies: Replicon Assay B.
Where [6] appears, read: Hepatitis C virus, read-out: 1A Y93H IC50 (nM), replicon 1AY93H.
Setting [7] is: Hepatitis C virus, read-out: 2B IC50 (nM), replicon 2B.
The mark [8] stands for this setting: Hepatitis C virus, read-out: 1A Q30D IC50 (nM), replicon 1AQ30D.
[9] abbreviates: read-out: 1A Y93H IC50, replicon 1AY93H.
[10] abbreviates: read-out: 1A Q30D IC50, replicon 1AQ30D.

As for `COC(=O)NC(C(=O)N1CCC[C@H]1c1ncc(-c2ccc3c(c2)cc2n3C(c3ccc(C4CCC4)s3)Oc3cc(-c4cnc([C@@H]5CCCN5C(=O)[C@@H](NC(=O)OC)C(C)C)[nH]4)cc(F)c3-2)[nH]1)C1C[C@@H](C)O[C@@H](C)C1` (stereo partly drawn) [Compound 374], the IC50 in assay [1] (setting [6]) was found to be 0.0035 nM; in assay [2] (Hepatitis C virus, replicon 1A) it was 1.5 pM; in assay [3] (setting [7]), 0.0041 nM; in assay [4] (setting [8]), 0.0221 nM; in assay [5] (Hepatitis C virus, replicon 1B) it was 2.2 pM.
For the compound `COC(=O)N[C@H](C(=O)N1CCC[C@H]1c1ncc(-c2cc(F)c3c(c2)OC(c2cc(C4CC4)cs2)n2c-3cc3cc(-c4cnc([C@@H]5CCCN5C(=O)[C@@H](NC(=O)OC)C(C)C)[nH]4)ccc32)[nH]1)C(C)C` (single isomer, unassigned) [Compound 24], the IC50 in assay [1] (setting [9]) is 1.35 nM; in assay [2] (replicon 1A), 2.7 pM; in assay [3] (read-out: 2B IC50, replicon 2B), 2.75 nM; in assay [4] (setting [10]), 14.9 nM; in assay [5] (replicon 1B), 3.1 pM.
Take `COC(=O)N[C@H](C(=O)N1CCC[C@H]1c1ncc(-c2ccc3c(c2)OC(c2cc4ccccc4s2)n2c-3cc3cc(-c4cnc([C@@H]5CCCN5C(=O)[C@@H](NC(=O)OC)C5CCOCC5)[nH]4)ccc32)[nH]1)C1CCOCC1` (single isomer, unassigned) [Compound 263]: the IC50 in assay [1] (setting [9]) turned out to be 0.003 nM; in assay [2] (replicon 1A) it was 3.6 pM; in assay [3] (read-out: 2B IC50, replicon 2B), 0.005 nM; in assay [4] (setting [10]), 0.012 nM; in assay [5] (replicon 1B), 3.4 pM.
Consider `COC(=O)NC(C(=O)N1[C@@H]2C[C@@H]2C[C@H]1c1ncc(-c2ccc3c(c2)c(F)c2n3C(c3ccc(C4CC4)s3)Oc3cc(-c4cnc([C@@H]5CCCN5C(=O)[C@@H](NC(=O)OC)C(C)C)[nH]4)ccc3-2)[nH]1)C1C[C@@H](C)O[C@@H](C)C1` (single isomer, unassigned) [Compound 645], for which the IC50 in assay [1] (read-out: 1A Y93H IC50, HCV replicon 1A Y93H) came to 0.0222 nM; in assay [2] (HCV replicon 1A), 2.6 pM; in assay [3] (read-out: 2B IC50, HCV replicon 2B), 0.0686 nM; in assay [4] (read-out: 1A Q30D IC50, HCV replicon 1A Q30D) it was 0.25 nM; in assay [5] (HCV replicon 1B), 2.4 pM.
For the compound `COC(=O)N[C@@H](Cc1ccccc1)C(=O)N1CCC[C@H]1c1ncc(-c2ccc3c(c2)OC(c2ccc(-c4ccc(NC(=O)CCCC[C@@H]5SC[C@@H]6NC(=O)N[C@@H]65)cc4)s2)n2c-3cc3cc(-c4cnc([C@@H]5CCCN5C(=O)[C@H](Cc5ccccc5)NC(=O)OC)[nH]4)ccc32)[nH]1` (single isomer, unassigned) [Compound 384], the IC50 in assay [1] (setting [9]) came out at 0.923 nM; in assay [2] (replicon 1A) it was 15.6 pM; in assay [3] (read-out: 2B IC50, replicon 2B) it was 3.75 nM; in assay [4] (setting [8]) it was 16.7 nM; in assay [5] (Hepatitis C virus, replicon 1B) it was 9.5 pM.
As for `COC(=O)NC(C(=O)N1CCC[C@H]1c1ncc(-c2ccc3c(c2)cc2n3C(c3ccc(C4CC4)s3)Oc3cc(-c4cnc([C@@H]5CCCN5C(=O)[C@@H](NC(=O)OC)C(C)C)[nH]4)cc(F)c3-2)[nH]1)C1C[C@@H](C)O[C@@H](C)C1` (stereo partly drawn) [Compound 208], the IC50 was 0.008 nM in assay [1] (setting [6]); 3.1 pM in assay [2] (Hepatitis C virus, replicon 1A); 0.005 nM in assay [3] (setting [7]); 0.043 nM in assay [4] (setting [8]); 3.2 pM in assay [5] (Hepatitis C virus, replicon 1B).
